Measurements from patent US8541460B2, “PDK-1/Akt signaling inhibitors” (The Ohio State University, priority 2003, dated 2013).

Tests used:
[1] = tested on: OVCAR-3; assay: NCI DTP cell line screen (SRB), Ovarian Cancer; type: cell-based
Experimental: (§1) Screening of compounds 70 and 71 against several cancer cell lines The human tumor cell lines of the cancer screening panel are grown in RPMI 1640 medium containing 5% fetal bovine serum and 2 mM L-glutamine. For a typical screening experiment, cells are inoculated into 96 well microtiter plates in 100 μL at plating densities ranging from 5,000 to 40,000 cells/well depending on the doubling time of individual cell lines. After cell inoculation, the microtiter plates are incubated at 37° C., 5% CO2, 95% air and 100% relative humidity for 24 h prior to addition of experimental drugs.
(§2) After 24 h, two plates of each cell line are fixed in situ with TCA, to represent a measurement of the cell population for each cell line at the time of drug addition (Tz). Experimental drugs are solubilized in dimethyl sulfoxide at 400-fold the desired final maximum test concentration and stored frozen prior to use. At the time of drug addition, an aliquot of frozen concentrate is thawed and diluted to twice the desired final maximum test concentration with complete medium containing 50 μg/ml gentamicin. Additional four, 10-fold or ½ log serial dilutions are made to provide a total of five drug concentrations plus control. Aliquots of 100 μl of these different drug dilutions are added to the appropriate microtiter wells already containing 100 μl of medium, resulting in the required final drug concentrations.
(§3) Following drug addition, the plates are incubated for an additional 48 h at 37° C., 5% CO2, 95% air, and 100% relative humidity. For adherent cells, the assay is terminated by the addition of cold TCA. Cells are fixed in situ by the gentle addition of 50 μl of cold 50% (w/v) TCA (final concentration, 10% TCA) and incubated for 60 minutes at 4° C. The supernatant is discarded, and the plates are washed five times with tap water and air dried. Sulforhodamine B (SRB) solution (100 μl) at 0.4% (w/v) in 1% acetic acid is added to each well, and plates are incubated for 10 minutes at room temperature. After staining, unbound dye is removed by washing five times with 1% acetic acid and the plates are air dried. Bound stain is subsequently solubilized with 10 mM trizma base, and the absorbance is read on an automated plate reader at a wavelength of 515 nm. For suspension cells, the methodology is the same except that the assay is terminated by fixing settled cells at the bottom of the wells by gently adding 50 μl of 80% TCA (final concentration, 16% TCA). Using the seven absorbance measurements [time zero, (Tz), control growth, (C), and test growth in the presence of drug at the five concentration levels (Ti)], the percentage growth is calculated at each of the drug concentrations levels. Percentage growth inhibition is calculated as: [(Ti−Tz)/(C−Tz)]×100 for concentrations for which Ti>/=Tz [(Ti−Tz)/Tz]×100 for concentrations for which Ti<Tz
(§4) Three dose response parameters are calculated for each experimental agent. […] The drug concentration resulting in total growth inhibition (TGI) is calculated from Ti=Tz. […] Values are calculated for each of these three parameters if the level of activity is reached; however, if the effect is not reached or is exceeded, the value for that parameter is expressed as greater or less than the maximum or minimum concentration tested.
(§5) The methods described were used to test compounds 70 and 71 on a panel of sixty cell lines under a screening service provided by the Developmental Therapeutics Program at the National Institutes of Health. Shown in FIG. 1C are 1, RPMI-8226 leukemia cells; 2; NCI-H322M non-small cell lung cancer cells; 3, HT29 colon cancer cells; 4, U251 CNS cancer cells; 5, SK-MEL-28 melanoma cancer cells; 6, SK-OV-3 ovarian cancer cells; 7, RXF 393 renal cancer cells; 8, PC-3 prostate cancer cells; 9, MDA-MB-231 breast cancer cells.

[2] = tested on: OVCAR-8; assay: NCI DTP cell line screen (SRB), Ovarian Cancer; type: cell-based; settings: OVCAR 8
Experimental: as §1, §2, §3, §4, §5

[3] = tested on: OVCAR-5; assay: NCI DTP cell line screen (SRB), Ovarian Cancer; type: cell-based
Experimental: as §1, §2, §3, §4, §5

[4] = tested on: OVCAR-4; assay: NCI DTP cell line screen (SRB), Ovarian Cancer; type: cell-based
Experimental: as §1, §2, §3, §4, §5

[5] = tested on: IGROV1; assay: NCI DTP cell line screen (SRB), Ovarian Cancer; type: cell-based
Experimental: as §1, §2, §3, §4, §5

[6] = tested on: immunoprecipitated Akt; assay: Direct inhibition of immunoprecipitated Akt kinase activity; type: biochemical, human
[7] = tested on: MDA-MB-435; assay: NCI DTP cell line screen (SRB), Breast Cancer; type: cell-based, human
Experimental: as §1, §2, §3, §4, §5

[8] = tested on: SK-MEL-5; assay: NCI DTP cell line screen (SRB), Melanoma; type: cell-based, human
Experimental: as §1, §2, §3, §4, §5

[9] = tested on: SK-OV-3; assay: NCI DTP cell line screen (SRB), Ovarian Cancer; type: cell-based, human
Experimental: as §1, §2, §3, §4, §5

[10] = read-out: LC50 (the source's name)

For N=C(N)Nc1ccc(-n2nc(C(F)(F)F)cc2-c2ccc3c(ccc4ccccc43)c2)cc1 [Compound 71, 4-[5-(2-Phenanthrenyl)-3-(trifluoromethyl)-1H-pyrazol-1-yl]-phenyl-guanidine], the GI50 [1] was 1.4 µM, the TGI [1] was 2.70E−06 and the “Mean Optical Densities” value ([1]; Log10 Concentration −4.0) was 0.131. The “Percent Growth” value ([1]; Log10 Concentration −4.0) was −72%, the “Mean Optical Densities” value ([1]; Log10 Concentration −5.0) was −0.043 and the “Percent Growth” value ([1]; Log10 Concentration −5.0) was −100%. The “Mean Optical Densities” value ([1]; Log10 Concentration −6.0) was 0.770, the “Percent Growth” value ([1]; Log10 Concentration −6.0) was 76% and the “Mean Optical Densities” value ([1]; Log10 Concentration −7.0) was 0.792. The “Percent Growth” value ([1]; Log10 Concentration −7.0) was 81%, the “Mean Optical Densities” value ([1]; Log10 Concentration −8.0) was 0.833 and the “Percent Growth” value ([1]; Log10 Concentration −8.0) was 91%. The CC50 [1, 10] was 5.2 µM, the GI50 [2] was 1.69 µM and the TGI [2] was 3.05E−06. For the same compound, the “Mean Optical Densities” value ([2]; Log10 Concentration −4.0) was 0.126, the “Percent Growth” value ([2]; Log10 Concentration −4.0) was −69% and the “Mean Optical Densities” value ([2]; Log10 Concentration −5.0) was −0.001. The “Percent Growth” value ([2]; Log10 Concentration −5.0) was −100%, the “Mean Optical Densities” value ([2]; Log10 Concentration −6.0) was 0.934 and the “Percent Growth” value ([2]; Log10 Concentration −6.0) was 94%. For the same compound, the “Mean Optical Densities” value ([2]; Log10 Concentration −7.0) was 0.946, the “Percent Growth” value ([2]; Log10 Concentration −7.0) was 96% and the “Mean Optical Densities” value ([2]; Log10 Concentration −8.0) was 0.923. The “Percent Growth” value ([2]; Log10 Concentration −8.0) was 92%, the CC50 [2, 10] was 5.52 µM and the GI50 [3] was 1.73 µM. The TGI [3] was 3.11E−06, the “Mean Optical Densities” value ([3]; Log10 Concentration −4.0) was 0.474 and the “Percent Growth” value ([3]; Log10 Concentration −4.0) was −8%. The “Mean Optical Densities” value ([3]; Log10 Concentration −5.0) was −0.033, the “Percent Growth” value ([3]; Log10 Concentration −5.0) was −100% and the “Mean Optical Densities” value ([3]; Log10 Concentration −6.0) was 1.559. The “Percent Growth” value ([3]; Log10 Concentration −6.0) was 97%, the “Mean Optical Densities” value ([3]; Log10 Concentration −7.0) was 1.437 and the “Percent Growth” value ([3]; Log10 Concentration −7.0) was 86%. The “Mean Optical Densities” value ([3]; Log10 Concentration −8.0) was 1.538, the “Percent Growth” value ([3]; Log10 Concentration −8.0) was 95% and the GI50 [4] was 1.31 µM. For the same compound, the TGI [4] was 2.58E−06, the “Mean Optical Densities” value ([4]; Log10 Concentration −4.0) was 0.179 and the “Percent Growth” value ([4]; Log10 Concentration −4.0) was −66%. The “Mean Optical Densities” value ([4]; Log10 Concentration −5.0) was −0.001, the “Percent Growth” value ([4]; Log10 Concentration −5.0) was −100% and the “Mean Optical Densities” value ([4]; Log10 Concentration −6.0) was 0.945. For the same compound, the “Percent Growth” value ([4]; Log10 Concentration −6.0) was 70%, the “Mean Optical Densities” value ([4]; Log10 Concentration −7.0) was 0.999 and the “Percent Growth” value ([4]; Log10 Concentration −7.0) was 79%. For the same compound, the “Mean Optical Densities” value ([4]; Log10 Concentration −8.0) was 1.011, the “Percent Growth” value ([4]; Log10 Concentration −8.0) was 81% and the CC50 [4, 10] was 5.08 µM. The GI50 [5] was 1.07 µM, the TGI [5] was 2.26E−06 and the “Mean Optical Densities” value ([5]; Log10 Concentration −4.0) was 0.216. The “Percent Growth” value ([5]; Log10 Concentration −4.0) was −53%, the “Mean Optical Densities” value ([5]; Log10 Concentration −5.0) was −0.039 and the “Percent Growth” value ([5]; Log10 Concentration −5.0) was −100%. The “Mean Optical Densities” value ([5]; Log10 Concentration −6.0) was 0.806, the “Percent Growth” value ([5]; Log10 Concentration −6.0) was 55% and the “Mean Optical Densities” value ([5]; Log10 Concentration −7.0) was 0.983. The “Percent Growth” value ([5]; Log10 Concentration −7.0) was 83%, the “Mean Optical Densities” value ([5]; Log10 Concentration −8.0) was 0.997 and the “Percent Growth” value ([5]; Log10 Concentration −8.0) was 85%. For the same compound, the CC50 [5, 10] was 4.75 µM, the “direct inhibitory effect on immunoprecipitated Akt activity” value [6] was “no appreciable direct inhibition” and the GI50 [7] was 1.7 µM. For the same compound, the “Mean Optical Densities” value ([7]; Log10 Concentration −4.0) was 0.295, the “Percent Growth” value ([7]; Log10 Concentration −4.0) was −27% and the “Mean Optical Densities” value ([7]; Log10 Concentration −5.0) was −0.073. The “Percent Growth” value ([7]; Log10 Concentration −5.0) was −100%, the “Mean Optical Densities” value ([7]; Log10 Concentration −6.0) was 1.444 and the “Percent Growth” value ([7]; Log10 Concentration −6.0) was 95%. For the same compound, the “Mean Optical Densities” value ([7]; Log10 Concentration −7.0) was 1.382, the “Percent Growth” value ([7]; Log10 Concentration −7.0) was 89% and the “Mean Optical Densities” value ([7]; Log10 Concentration −8.0) was 1.376. The “Percent Growth” value ([7]; Log10 Concentration −8.0) was 89%, the TGI ([7]; in M (unit assumed)) was 3.07E−06 and the GI50 [8] was 2.22 µM. For the same compound, the “Mean Optical Densities” value ([8]; Log10 Concentration −4.0) was 0.363, the “Percent Growth” value ([8]; Log10 Concentration −4.0) was −34% and the “Mean Optical Densities” value ([8]; Log10 Concentration −5.0) was 0.143. The “Percent Growth” value ([8]; Log10 Concentration −5.0) was −74%, the “Mean Optical Densities” value ([8]; Log10 Concentration −6.0) was 1.812 and the “Percent Growth” value ([8]; Log10 Concentration −6.0) was 116%. The “Mean Optical Densities” value ([8]; Log10 Concentration −7.0) was 1.762, the “Percent Growth” value ([8]; Log10 Concentration −7.0) was 111% and the “Mean Optical Densities” value ([8]; Log10 Concentration −8.0) was 1.611. For the same compound, the “Percent Growth” value ([8]; Log10 Concentration −8.0) was 97%, the TGI ([8]; in M (unit assumed)) was 4.07E−06 and the GI50 [9] was 1.43 µM. For the same compound, the TGI [9] was 2.94E−06, the “Mean Optical Densities” value ([9]; Log10 Concentration −4.0) was 0.278 and the “Percent Growth” value ([9]; Log10 Concentration −4.0) was −30%. The “Mean Optical Densities” value ([9]; Log10 Concentration −5.0) was 0.062, the “Percent Growth” value ([9]; Log10 Concentration −5.0) was −85% and the “Mean Optical Densities” value ([9]; Log10 Concentration −6.0) was 1.093. For the same compound, the “Percent Growth” value ([9]; Log10 Concentration −6.0) was 75%, the “Mean Optical Densities” value ([9]; Log10 Concentration −7.0) was 1.245 and the “Percent Growth” value ([9]; Log10 Concentration −7.0) was 91%. The “Mean Optical Densities” value ([9]; Log10 Concentration −8.0) was 1.261 and the “Percent Growth” value ([9]; Log10 Concentration −8.0) was 93%.
